Target: T1, mTLR9ect (extracellular domain of murine TLR9 fused to human IgG1-Fc) (Mus musculus, UniProt Q9EQU3)
T1 construct: mTLR9ect (aa 1-816); made in house
T1 sequence (Q9EQU3 26-816): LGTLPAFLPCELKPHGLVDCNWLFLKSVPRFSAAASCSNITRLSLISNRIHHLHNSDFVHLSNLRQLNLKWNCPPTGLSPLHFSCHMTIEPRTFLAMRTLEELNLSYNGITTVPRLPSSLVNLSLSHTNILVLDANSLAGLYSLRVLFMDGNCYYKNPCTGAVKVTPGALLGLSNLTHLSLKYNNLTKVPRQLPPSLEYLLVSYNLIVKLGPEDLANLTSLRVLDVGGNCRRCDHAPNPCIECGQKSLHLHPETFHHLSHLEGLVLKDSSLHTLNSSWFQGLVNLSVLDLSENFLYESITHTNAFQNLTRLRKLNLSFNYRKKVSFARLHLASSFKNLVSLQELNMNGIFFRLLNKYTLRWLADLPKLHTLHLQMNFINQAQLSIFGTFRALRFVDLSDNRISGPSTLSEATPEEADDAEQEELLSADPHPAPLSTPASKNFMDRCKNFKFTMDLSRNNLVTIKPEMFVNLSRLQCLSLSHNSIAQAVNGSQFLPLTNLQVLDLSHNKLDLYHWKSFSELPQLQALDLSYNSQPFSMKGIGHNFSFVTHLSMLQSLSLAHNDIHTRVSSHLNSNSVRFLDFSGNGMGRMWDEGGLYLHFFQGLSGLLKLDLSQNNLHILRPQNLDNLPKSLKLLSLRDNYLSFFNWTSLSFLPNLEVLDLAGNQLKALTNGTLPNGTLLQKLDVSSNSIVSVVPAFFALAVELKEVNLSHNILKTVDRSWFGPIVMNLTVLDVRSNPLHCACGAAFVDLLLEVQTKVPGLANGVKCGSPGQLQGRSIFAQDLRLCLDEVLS
Assay: SPR biosensor analysis of mTLR9ect binding to immobilized CpG-DNA
Text: Protein. Recombinant fusion proteins consisting of the extracellular domain of Toll-like receptors mTLR9ect (aa 1-816), mTLR9ect-mut (see below) (aa 1-816), hTLR9ect (aa 1-815) and mTLR2ect (aa 1-587) fused to human IgG1-Fc were constructed by amplifying the corresponding extracellular domain and ligating the fragment in frame into a pcDNA3.1(−) (Invitrogen, Netherlands) vector containing the coding sequence for human IgG1-Fc. Fusion proteins were stably expressed in HEK 293 cells and purified from cell lysates by protein A affinity chromatography.
SPR biosensor analysis. Real-time binding of TLR9 or TLR2 was measured by surface plasmon resonance biosensor technology using the BiaCore X system (Uppsala, Sweden). For analysis of TLR9 and TLR2 interaction, biotinylated CpG-DNA and non-CpG-DNA, or biotinylated Pam3CysK4 and PHCK4, respectively, were loaded in running buffer (50 mM MES, 150 mM NaCl, 1 mM MgCl2 at pH 6.5) on SA chips precoated with streptavidin (Biacore AB, Uppsala, Sweden). Non-CpG-DNA or PHCK4 (Wiesmuller K H et al. (1989) Vaccine 7:29-33) served as reference for CpG-DNA and Pam3CysK4 interaction (structure or sequence in Table 1). […] TLR proteins were introduced at 200 nM or as indicated in 40 μl running buffer at a flow rate of 10 μl/min. Binding was measured at 25° C. for 750 s (delay time 300 s). […] Sensorgrams were recorded and kinetic data were calculated by the BiaCore Evaluation program (Biacore, version 3.0.1). Regeneration of the chip was performed by injection of 10 μl 50 mM NaOH, 1 M NaCl and extensive re-equilibration.
For detailed analysis of TLR9-CpG-DNA interaction, surface plasmon resonance (SPR) biosensor based technology was used with CpG- and non-CpG-DNA immobilized onto separate flow cells of a streptavidin-coated chip. Under these settings non-CpG-DNA served as reference for specific binding (see Methods). Binding of mTLR9ect to DNA was CpG-sequence-specific and increased in a dose-dependent manner. […] Using the 1:1 binding model of the BioEvaluation software as fitting algorithm and on the basis of four different mTLR9ect concentrations ranging from 50 to 300 nM, a dissociation constant (Kd) of 200 nM was obtained with low chi-squared residuals (4,76). […] Weber AN et al. (2003) Nat. Immunol. 4:794-800. Furthermore the concentration of CpG-DNA 1668 (SEQ ID NO:1) for half-maximal activation of murine TLR9 has been recently calculated as 70 nM which correlates well with the KD obtained here. Bauer S et al. (2001) Proc. Natl. Acad. Sci. U.S.A. 98:9237-9242. […] This difference in affinity correlates with the observed species-specific variance in CpG-motif recognition, as well as activation potential. Bauer S et al. (2001) Proc. Natl. Acad. Sci. U.S.A. 98:9237-9242.

For “5′-TCCATGACGTTCCTGATGCT-3′ (chemistry not given here) [CpG-DNA 1668, synthetic CpG oligodeoxynucleotide, TLR9 ligand]”, the Kd (1:1 binding model, four mTLR9ect concentrations 50 to 300 nM, running buffer pH 6.5, 25° C., read-out: dissociation constant (Kd)) was 200 nM, the “Binding of mTLR9ect to DNA” value (SPR, non-CpG-DNA as reference, pH 6.5) was “CpG-sequence-specific” and the “release of bound mTLR9ect by free injected DNA” value (competition, free DNA added in dissociation phase) was “dose dependently released bound mTLR9ect”. The “TLR9 binding to CpG-DNA” value (pH 6.5 or 5.5) was “strong”, the “dissociation of TLR9 from CpG-DNA” value (pH 6.5 or 5.5) was “weak dissociation” and the “effect of pre-incubation of mTLR9ect with DNA on binding to chip-immobilized CpG-DNA” value (pre-incubation prior to SPR analysis) was “abolished binding”.

Reference: patent US20050100983A1, “Cell-free methods for identifying compounds that affect toll-like receptor 9 (TLR9) signaling” (Coley Pharmaceutical GmbH, priority 2003, published 2005)
